Laboratory results as given in BindingDB's records for patent US20240010658 (Ono Pharmaceutical Co., 2024).

Biological target: T1, Monoacylglycerol lipase ABHD6 [33-337] (Homo sapiens, UniProt Q9BV23)
T1 construct: 33-337
T1 sequence (Q9BV23 whole entry): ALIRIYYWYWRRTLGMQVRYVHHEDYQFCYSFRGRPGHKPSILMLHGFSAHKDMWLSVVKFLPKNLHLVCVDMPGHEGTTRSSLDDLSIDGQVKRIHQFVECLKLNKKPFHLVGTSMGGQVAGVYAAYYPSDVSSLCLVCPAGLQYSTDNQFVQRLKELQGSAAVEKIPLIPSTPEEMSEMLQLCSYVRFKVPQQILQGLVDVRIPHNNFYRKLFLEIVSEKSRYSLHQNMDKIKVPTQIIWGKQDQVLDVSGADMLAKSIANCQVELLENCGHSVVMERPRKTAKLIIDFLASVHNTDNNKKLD
Assay: Evaluation of ABHD6 Enzyme Inhibitory Activity Assay
Description: The enzyme reaction was carried out at room temperature using a 384-well microplate made of polypropylene, and wells to which no enzyme was added were designated as a blank group. One hour after the start of the enzyme reaction, methanol containing, as an internal standard substance, arachidonic acid-d8 (Cayman Chemical) and 1% formic acid was added to stop enzymatic reaction. The upper part of the enzyme reaction plate was sealed with aluminum, and centrifugation was performed at 560 g for 5 minutes at room temperature. Then, arachidonic acid as an enzyme reaction product and arachidonic acid-ds as the internal standard substance were quantified with RapidFire (registered trademark)-Mass Spectrometry system.

## CN(C)c1ncc(C(=O)N2C[C@@H]3CC[C@@H](Nc4ccc(Br)nn4)[C@@H]3C2)s1 [US20240010658, Example 2-6]
  IC50: in the range around 2 nM
